From PubChem BioAssay (NCI)
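In this assay, cells in 96-well plates receive the compound at five concentrations for 48 hours. Endpoints are linearly interpolated between the surrounding concentrations. GI50: concentration for 50% inhibition of growth. TGI marks complete inhibition of growth.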

Legend:
Test in all cases: inhibition of tumour cell growth, NCI panel, 48 h
SNB-75 CNS = tested on: SNB-75 CNS
SK-MEL-2 melanoma = tested on: SK-MEL-2 melanoma
NCI-H522 lung = tested on: NCI-H522 lung
HOP-92 NSCLC = tested on: HOP-92 NSCLC
ACHN renal = tested on: ACHN renal
SF-268 CNS = tested on: SF-268 CNS
KM12 colon = tested on: KM12 colon
CAKI-1 renal = tested on: CAKI-1 renal
NCI-H460 lung = tested on: NCI-H460 lung
SW-620 colon = tested on: SW-620 colon
HT29 colon = tested on: HT29 colon
UO-31 renal = tested on: UO-31 renal
MDA-MB-435 = tested on: MDA-MB-435
SF-295 CNS = tested on: SF-295 CNS
M14 melanoma = tested on: M14 melanoma
UACC-62 melanoma = tested on: UACC-62 melanoma
NCI-H226 lung = tested on: NCI-H226 lung
786-0 renal = tested on: 786-0 renal
A549 NSCLC = tested on: A549 NSCLC
A498 renal = tested on: A498 renal
COLO 205 colon = tested on: COLO 205 colon
NCI/ADR-RES ovarian = tested on: NCI/ADR-RES ovarian
HCT-15 colon = tested on: HCT-15 colon
MDA-MB-468 breast = tested on: MDA-MB-468 breast
SK-OV-3 ovarian = tested on: SK-OV-3 ovarian
HCT-116 colon = tested on: HCT-116 colon
SK-MEL-5 melanoma = tested on: SK-MEL-5 melanoma
BT-549 breast = tested on: BT-549 breast
HCC-2998 colon = tested on: HCC-2998 colon
MALME-3M melanoma = tested on: MALME-3M melanoma

Structure (SMILES): COc1ccc(-c2nc(S(=O)(=O)c3ccc(C)cc3)c(S(=O)(=O)CC(=O)N(C)Cc3ccccc3)o2)cc1
- TGI (SNB-75 CNS): 18.7 µM
- GI50 (SK-MEL-2 melanoma): 13.8 µM
- TGI (SK-MEL-2 melanoma): 27.4 µM
- GI50 (NCI-H522 lung): 2.19 µM
- TGI (NCI-H522 lung): 6.94 µM
- GI50 (HOP-92 NSCLC): 14 µM
- TGI (HOP-92 NSCLC): 39.2 µM
- GI50 (ACHN renal): 10.8 µM
- TGI (ACHN renal): 22.7 µM
- GI50 (SF-268 CNS): 12.1 µM
- TGI (SF-268 CNS): 29.7 µM
- GI50 (KM12 colon): 15.8 µM
- TGI (KM12 colon): 32.3 µM
- GI50 (CAKI-1 renal): 5.76 µM
- TGI (CAKI-1 renal): 18.6 µM
- GI50 (NCI-H460 lung): 8.2 µM
- TGI (NCI-H460 lung): 23.3 µM
- GI50 (SW-620 colon): 4.25 µM
- TGI (SW-620 colon): 17.5 µM
- GI50 (HT29 colon): 9.39 µM
- TGI (HT29 colon): 30.5 µM
- GI50 (UO-31 renal): 10.3 µM
- TGI (UO-31 renal): 22 µM
- GI50 (MDA-MB-435): 7.32 µM
- TGI (MDA-MB-435): 31.1 µM
- GI50 (SF-295 CNS): 12.7 µM
- TGI (SF-295 CNS): 25.5 µM
- GI50 (M14 melanoma): 12.4 µM
- TGI (M14 melanoma): 30.8 µM
- GI50 (UACC-62 melanoma): 11.7 µM
- TGI (UACC-62 melanoma): 23.9 µM
- GI50 (NCI-H226 lung): 14.8 µM
- TGI (NCI-H226 lung): 39.6 µM
- GI50 (786-0 renal): 8.89 µM
- TGI (786-0 renal): 23 µM
- GI50 (A549 NSCLC): 14.6 µM
- TGI (A549 NSCLC): 33.6 µM
- GI50 (A498 renal): 13.5 µM
- TGI (A498 renal): 26.8 µM
- GI50 (COLO 205 colon): 12.2 µM
- TGI (COLO 205 colon): 41.7 µM
- GI50 (NCI/ADR-RES ovarian): 15.2 µM
- TGI (NCI/ADR-RES ovarian): 45.2 µM
- GI50 (HCT-15 colon): 6.17 µM
- TGI (HCT-15 colon): 20.8 µM
- GI50 (MDA-MB-468 breast): 2.41 µM
- TGI (MDA-MB-468 breast): 8 µM
- GI50 (SK-OV-3 ovarian): 30.5 µM
- TGI (SK-OV-3 ovarian): > 100 µM
- GI50 (HCT-116 colon): 5.02 µM
- TGI (HCT-116 colon): 19.6 µM
- GI50 (SK-MEL-5 melanoma): 14.3 µM
- TGI (SK-MEL-5 melanoma): 27.7 µM
- GI50 (BT-549 breast): 12.3 µM
- TGI (BT-549 breast): 26 µM
- GI50 (HCC-2998 colon): 13.3 µM
- TGI (HCC-2998 colon): 26.1 µM
- GI50 (MALME-3M melanoma): 14.8 µM
- TGI (MALME-3M melanoma): 29.6 µM
